Experimental data: PubChem BioAssay (NCI)
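Values below derive from 48-hour exposures of cells grown in 96-well plates, with endpoints linearly interpolated between the two concentrations bracketing the appropriate inhibition level. GI50 = concentration required for 50% inhibition of growth. TGI: total growth inhibition.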

Assays:
Assay in all cases: DTP human tumour cell line panel, 48 h
[1] = system: NCI-H522 lung
[2] = system: K-562 leukemia
[3] = system: M14 melanoma
[4] = system: CAKI-1 renal
[5] = system: SK-MEL-5 melanoma
[6] = system: EKVX NSCLC
[7] = system: UACC-62 melanoma
[8] = system: SW-620 colon
[9] = system: OVCAR-4 ovarian
[10] = system: SK-MEL-28 melanoma

Compound	GI50 [1]	TGI [1]	GI50 [2]	TGI [2]	GI50 [3]	TGI [3]	GI50 [4]	TGI [4]	GI50 [5]	TGI [5]	GI50 [6]	TGI [6]	GI50 [7]	TGI [7]	GI50 [8]	TGI [8]	GI50 [9]	TGI [9]	GI50 [10]	TGI [10]
Cc1cc(Cl)ccc1NS(=O)(=O)c1ccc(-c2cnc(C3CC3)o2)cc1	0.251 µM	4.34 µM	0.0723 µM	> 100 µM	0.254 µM	15.3 µM	0.127 µM	17.6 µM	0.517 µM	6.88 µM	0.411 µM	28.5 µM	0.169 µM	17.1 µM	0.198 µM	16.1 µM	2.98 µM	20.6 µM	4.9 µM	22.8 µM
Oc1[nH]c2cc(Cl)ccc2c1/C=c1/ccc2c(c1)N=C(c1cc(F)cc(F)c1)N=2	1.19 µM	3.38 µM	0.821 µM	12.1 µM	1.52 µM	3.69 µM	1.73 µM	16.6 µM	1.68 µM	7.59 µM	5.27 µM	32.4 µM	0.71 µM	12.4 µM	1.1 µM	9.32 µM	4.25 µM	16.1 µM	2.78 µM	13.6 µM
COc1ccc(S(=O)(=O)N(C)CC(=O)O)cc1	–	> 100 µM	–	> 100 µM	–	> 100 µM	–	> 100 µM	–	> 100 µM	–	> 100 µM	–	> 100 µM	–	> 100 µM	–	> 100 µM	–	> 100 µM
O=C(Cc1csc2nc(-c3ccc(Br)cc3)cn12)N/N=C/c1ccc(O)cc1	10.7 µM	34.5 µM	1.83 µM	7.02 µM	10.2 µM	23.7 µM	14.9 µM	49.3 µM	7.14 µM	22.2 µM	11.5 µM	65.9 µM	9.11 µM	23.5 µM	31.5 µM	> 100 µM	> 100 µM	> 100 µM	60 µM	> 100 µM
CC1CC[C@]2(C(=O)O)CCC3(C)C(=CCC4[C@@]5(C)CC[C@H](OS(=O)(=O)c6ccccc6)C(C)(C)C5CC[C@]43C)[C@@H]2[C@H]1C (stereo not given in full)	–	> 100 µM	–	> 100 µM	–	> 100 µM	–	> 100 µM	–	> 100 µM	–	> 100 µM	–	> 100 µM	–	> 100 µM	–	> 100 µM	–	> 100 µM
CC(=O)Oc1ccc2c(c1)CC[C@@H]1C2CC[C@]2(C)C(=O)NC(=O)CC12 (stereo not given in full)	–	> 100 µM	–	> 100 µM	–	> 100 µM	–	> 100 µM	–	> 100 µM	–	> 100 µM	–	> 100 µM	–	> 100 µM	–	> 100 µM	–	> 100 µM
C=[CH][Sn]([CH]=C)([O]c1cccc2cccnc12)[O]c1cccc2cccnc12	0.93 µM	3.36 µM	2.73 µM	> 24.9 µM	2.11 µM	5.92 µM	6.73 µM	22.8 µM	1.94 µM	5.44 µM	5.58 µM	17.2 µM	0.964 µM	2.5 µM	1.13 µM	3.44 µM	1.38 µM	4.37 µM	4.03 µM	10.5 µM
O=C1c2ccccc2C(=O)c2nc3ccc(Cl)cc3cc21	–	> 100 µM	–	> 100 µM	–	> 100 µM	–	> 100 µM	–	> 100 µM	–	> 100 µM	–	> 100 µM	–	> 100 µM	–	> 100 µM	–	> 100 µM
Oc1ccc(Cl)cc1Cc1cc(Cl)ccc1O	1.92 µM	5.32 µM	3.3 µM	13.7 µM	3.31 µM	10.5 µM	2.8 µM	9.38 µM	1.62 µM	3.46 µM	2.65 µM	8.84 µM	2.77 µM	10.5 µM	3.04 µM	12.4 µM	2.84 µM	11.9 µM	3.52 µM	12.6 µM
C/C=C1\C(=O)OC2CCN3CCC(COC(=O)C(C)(O)C(C)C1O)C23 (stereo not given)	–	> 100 µM	–	> 100 µM	–	> 100 µM	–	> 100 µM	–	> 100 µM	–	> 100 µM	–	> 100 µM	–	> 100 µM	–	> 100 µM	–	> 100 µM
C[C@]12CC[C@H](OC3CCCCO3)CC1=CC[C@@H]1C2CC[C@]2(C)/C(=N/O)CCC12 (stereo not given in full)	–	31.1 µM	–	> 100 µM	–	63.9 µM	–	> 100 µM	–	> 100 µM	–	82.9 µM	–	> 100 µM	–	> 100 µM	–	39 µM	–	54.3 µM
CC1(C)OC2C(COS(N)(=O)=O)SC(n3cnc4cncnc43)C2O1 (stereo not given)	> 100 µM	> 100 µM	> 100 µM	> 100 µM	> 100 µM	> 100 µM	> 100 µM	> 100 µM	> 100 µM	> 100 µM	> 100 µM	> 100 µM	> 100 µM	> 100 µM	> 100 µM	> 100 µM	> 100 µM	> 100 µM	> 100 µM	> 100 µM
COc1ccc(OC)c2c3c(ccc12)C(c1ccccc1)OC3=O (stereo not given)	–	> 100 µM	–	> 100 µM	–	> 100 µM	–	> 100 µM	–	> 100 µM	–	> 100 µM	–	> 100 µM	–	> 100 µM	–	> 100 µM	–	> 100 µM
CC1CCC2N(C1)CC1C3(O)CC45OC6(O)C(O)CCC4(C)C6CCC5C3(O)CC(O)C1(O)C2(C)O (stereo not given)	–	> 100 µM	–	> 100 µM	–	> 100 µM	–	> 100 µM	–	> 100 µM	–	> 100 µM	–	> 100 µM	–	> 100 µM	–	> 100 µM	–	> 100 µM
CC1=NN(C(=O)c2ccccc2O)C(=O)/C1=C/c1cccc([N+](=O)[O-])c1	–	54.6 µM	–	> 100 µM	–	> 100 µM	–	> 100 µM	–	> 100 µM	–	> 100 µM	–	27.1 µM	–	> 100 µM	–	> 100 µM	–	> 100 µM
COc1cnc2cc(C(=O)O)c3ccccc3c2c1	–	> 100 µM	–	> 100 µM	–	> 100 µM	–	> 100 µM	–	> 100 µM	–	> 100 µM	–	> 100 µM	–	> 100 µM	–	> 100 µM	–	> 100 µM
O=C(c1ccc(Cl)cc1)C1OC12C(=O)Nc1ccccc12 (stereo not given)	–	3.97 µM	–	11.2 µM	–	19 µM	–	20.6 µM	–	24.6 µM	–	33.4 µM	–	32.3 µM	–	17.4 µM	–	34.1 µM	–	29.5 µM
